Experiments:
[1] = system: acetic acid-induced pain model in mice; assay: Acetic acid pain model, writhes; format: in vivo, ICR mice
Description: The acetic acid is a reliable fast model for noxious/visceral pain usually used for screening potential drug candidates for their analgesic activity. The effects of test article combinations on pain generation are assayed using the acetic acid-induced pain model in mice. Adult male ICR mice are administered study drugs intraperitoneally (vehicle, TCA, steroid or TCA/Steroid test article combinations) once daily for 2 days (day −2 and day −1) and 30 minutes prior to the acetic acid injection on day 0 (time=0). […] To elicit a pain response, dilute acetic acid (10 ml/kg of 0.6% solution) is injected intraperitoneally into the abdomen. The animal is placed in an observation chamber, and 5 minutes after acetic acid administration, the number of writhes is counted and recorded over a five minute period by a blinded observer. A writhe is considered as a contraction of the abdominal muscles accompanied by an elongation of the body and extension of the hind limb. Results are expressed as number of writhes.

[2] = system: formalin-induced pain model in rats; assay: Formalin pain model, nociceptive behaviors; format: in vivo, Sprague-Dawley rats
Procedure, shortened: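 Male Sprague-Dawley rats dosed intraperitoneally once daily on days −2 and −1 and 30 min before 2% formalin injection into the right hindpaw plantar surface. Lifting, licking and biting were timed by a blinded observer over 1 h, phase I and phase II, reported per 5-min period.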

How did the “Mean # of writhes per 5 minutes ± SEM” value ([1]; 1 mg/kg ip) turn out when `CNCCC=C1c2ccccc2CCc2ccccc21` [Nortriptyline] was run?
The value was 11.78 ± 3.44.

What about the “Mean # of writhes per 5 minutes ± SEM” value ([1]; 5 mg/kg ip) of the same compound?
Its value is 7.79 ± 3.81.

And the “Mean # of writhes per 5 minutes ± SEM” value ([1]; 10 mg/kg ip)?
The value was 7.57 ± 2.53.

And the “Mean # of writhes per 5 minutes ± SEM” value ([1]; 15 mg/kg ip)?
The value was 2.07 ± 1.42.

What about the “Mean number of behaviors per 5 minute block” value ([2]; Experiment One, nortriptyline, 1 mg/kg, 5 minutes) of the same compound?
The value was 185.0 ± 30.0.

What about the “Mean number of behaviors per 5 minute block” value ([2]; Experiment One, nortriptyline, 1 mg/kg, 10 minutes) of the same compound?
The value was 26.0 ± 16.0.

What about the “Mean number of behaviors per 5 minute block” value ([2]; Experiment One, nortriptyline, 1 mg/kg, 15 minutes) of the same compound?
The value was 16.0 ± 16.0.

What about the “Mean number of behaviors per 5 minute block” value ([2]; Experiment One, nortriptyline, 1 mg/kg, 20 minutes) of the same compound?
Its value is 33.0 ± 22.0.

And the “Mean number of behaviors per 5 minute block” value ([2]; Experiment One, nortriptyline, 1 mg/kg, 25 minutes)?
The value was 124.0 ± 40.0.

What about the “Mean number of behaviors per 5 minute block” value ([2]; Experiment One, nortriptyline, 1 mg/kg, 30 minutes) of the same compound?
Its value is 170.0 ± 46.0.

What about the “Mean number of behaviors per 5 minute block” value ([2]; Experiment One, nortriptyline, 1 mg/kg, 35 minutes) of the same compound?
Its value is 181.0 ± 47.0.

What about the “Mean number of behaviors per 5 minute block” value ([2]; Experiment One, nortriptyline, 1 mg/kg, 40 minutes) of the same compound?
Its value is 168.0 ± 46.0.

What about the “Mean number of behaviors per 5 minute block” value ([2]; Experiment One, nortriptyline, 1 mg/kg, 45 minutes) of the same compound?
Its value is 176.0 ± 45.0.

What about the “Mean number of behaviors per 5 minute block” value ([2]; Experiment One, nortriptyline, 1 mg/kg, 50 minutes) of the same compound?
The value was 191.0 ± 42.0.

And the “Mean number of behaviors per 5 minute block” value ([2]; Experiment One, nortriptyline, 1 mg/kg, 55 minutes)?
Its value is 165.0 ± 41.0.

And the “Mean number of behaviors per 5 minute block” value ([2]; Experiment One, nortriptyline, 1 mg/kg, 60 minutes)?
Its value is 89.0 ± 34.0.

And the “Mean number of behaviors per 5 minute block” value ([2]; Experiment One, nortriptyline, 3 mg/kg, 5 minutes)?
The value was 248.0 ± 10.6.

What about the “Mean number of behaviors per 5 minute block” value ([2]; Experiment One, nortriptyline, 3 mg/kg, 10 minutes) of the same compound?
The value was 36.0 ± 12.0.

And the “Mean number of behaviors per 5 minute block” value ([2]; Experiment One, nortriptyline, 3 mg/kg, 15 minutes)?
Its value is 87.0 ± 32.8.

And the “Mean number of behaviors per 5 minute block” value ([2]; Experiment One, nortriptyline, 3 mg/kg, 20 minutes)?
The value was 159.0 ± 39.7.

And the “Mean number of behaviors per 5 minute block” value ([2]; Experiment One, nortriptyline, 3 mg/kg, 25 minutes)?
Its value is 182.0 ± 36.3.

And the “Mean number of behaviors per 5 minute block” value ([2]; Experiment One, nortriptyline, 3 mg/kg, 30 minutes)?
Its value is 231.0 ± 32.4.

And the “Mean number of behaviors per 5 minute block” value ([2]; Experiment One, nortriptyline, 3 mg/kg, 35 minutes)?
The value was 253.0 ± 30.7.

What about the “Mean number of behaviors per 5 minute block” value ([2]; Experiment One, nortriptyline, 3 mg/kg, 40 minutes) of the same compound?
Its value is 253.0 ± 30.8.

What about the “Mean number of behaviors per 5 minute block” value ([2]; Experiment One, nortriptyline, 3 mg/kg, 45 minutes) of the same compound?
The value was 258.0 ± 28.3.

And the “Mean number of behaviors per 5 minute block” value ([2]; Experiment One, nortriptyline, 3 mg/kg, 50 minutes)?
Its value is 212.0 ± 28.3.

What about the “Mean number of behaviors per 5 minute block” value ([2]; Experiment One, nortriptyline, 3 mg/kg, 55 minutes) of the same compound?
The value was 136.0 ± 40.3.

And the “Mean number of behaviors per 5 minute block” value ([2]; Experiment One, nortriptyline, 3 mg/kg, 60 minutes)?
Its value is 94.0 ± 41.7.

What about the “Mean number of behaviors per 5 minute block” value ([2]; Experiment One, nortriptyline, 10 mg/kg, 5 minutes) of the same compound?
The value was 227.0 ± 19.3.

And the “Mean number of behaviors per 5 minute block” value ([2]; Experiment One, nortriptyline, 10 mg/kg, 10 minutes)?
Its value is 30.0 ± 18.2.

And the “Mean number of behaviors per 5 minute block” value ([2]; Experiment One, nortriptyline, 10 mg/kg, 15 minutes)?
The value was 11.0 ± 6.1.

And the “Mean number of behaviors per 5 minute block” value ([2]; Experiment One, nortriptyline, 10 mg/kg, 20 minutes)?
Its value is 39.0 ± 29.4.

What about the “Mean number of behaviors per 5 minute block” value ([2]; Experiment One, nortriptyline, 10 mg/kg, 25 minutes) of the same compound?
The value was 62.0 ± 38.5.

What about the “Mean number of behaviors per 5 minute block” value ([2]; Experiment One, nortriptyline, 10 mg/kg, 30 minutes) of the same compound?
The value was 60.0 ± 34.4.

And the “Mean number of behaviors per 5 minute block” value ([2]; Experiment One, nortriptyline, 10 mg/kg, 35 minutes)?
The value was 99.0 ± 43.0.

What about the “Mean number of behaviors per 5 minute block” value ([2]; Experiment One, nortriptyline, 10 mg/kg, 40 minutes) of the same compound?
Its value is 109.0 ± 44.0.

What about the “Mean number of behaviors per 5 minute block” value ([2]; Experiment One, nortriptyline, 10 mg/kg, 45 minutes) of the same compound?
Its value is 122.0 ± 43.2.

What about the “Mean number of behaviors per 5 minute block” value ([2]; Experiment One, nortriptyline, 10 mg/kg, 50 minutes) of the same compound?
The value was 96.0 ± 39.1.

What about the “Mean number of behaviors per 5 minute block” value ([2]; Experiment One, nortriptyline, 10 mg/kg, 55 minutes) of the same compound?
The value was 140.0 ± 42.6.

And the “Mean number of behaviors per 5 minute block” value ([2]; Experiment One, nortriptyline, 10 mg/kg, 60 minutes)?
The value was 180.0 ± 40.3.

What about the “Mean number of behaviors per 5 minute block” value ([2]; Experiment One, nortriptyline, 20 mg/kg, 5 minutes) of the same compound?
The value was 158.0 ± 31.6.

And the “Mean number of behaviors per 5 minute block” value ([2]; Experiment One, nortriptyline, 20 mg/kg, 10 minutes)?
Its value is 21.0 ± 12.8.

What about the “Mean number of behaviors per 5 minute block” value ([2]; Experiment One, nortriptyline, 20 mg/kg, 15 minutes) of the same compound?
The value was 0.0 ± 0.0.

And the “Mean number of behaviors per 5 minute block” value ([2]; Experiment One, nortriptyline, 20 mg/kg, 20 minutes)?
Its value is 9.0 ± 8.8.

What about the “Mean number of behaviors per 5 minute block” value ([2]; Experiment One, nortriptyline, 20 mg/kg, 25 minutes) of the same compound?
The value was 30.0 ± 30.0.

What about the “Mean number of behaviors per 5 minute block” value ([2]; Experiment One, nortriptyline, 20 mg/kg, 30 minutes) of the same compound?
The value was 36.0 ± 29.9.

And the “Mean number of behaviors per 5 minute block” value ([2]; Experiment One, nortriptyline, 20 mg/kg, 35 minutes)?
The value was 33.0 ± 29.2.

And the “Mean number of behaviors per 5 minute block” value ([2]; Experiment One, nortriptyline, 20 mg/kg, 40 minutes)?
Its value is 29.0 ± 29.3.

What about the “Mean number of behaviors per 5 minute block” value ([2]; Experiment One, nortriptyline, 20 mg/kg, 45 minutes) of the same compound?
The value was 33.0 ± 26.9.

What about the “Mean number of behaviors per 5 minute block” value ([2]; Experiment One, nortriptyline, 20 mg/kg, 50 minutes) of the same compound?
Its value is 46.0 ± 28.2.

And the “Mean number of behaviors per 5 minute block” value ([2]; Experiment One, nortriptyline, 20 mg/kg, 55 minutes)?
The value was 47.0 ± 29.4.

And the “Mean number of behaviors per 5 minute block” value ([2]; Experiment One, nortriptyline, 20 mg/kg, 60 minutes)?
The value was 68.0 ± 37.6.

What about the “Mean number of behaviors per 5 minute block” value ([2]; Experiment Two, 1 mg/kg, 5 minutes) of the same compound?
Its value is 232.0 ± 16.5.

What about the “Mean number of behaviors per 5 minute block” value ([2]; Experiment Two, 1 mg/kg, 10 minutes) of the same compound?
The value was 13.0 ± 4.9.

And the “Mean number of behaviors per 5 minute block” value ([2]; Experiment Two, 1 mg/kg, 15 minutes)?
The value was 27.0 ± 16.8.

And the “Mean number of behaviors per 5 minute block” value ([2]; Experiment Two, 1 mg/kg, 20 minutes)?
Its value is 113.0 ± 44.2.

And the “Mean number of behaviors per 5 minute block” value ([2]; Experiment Two, 1 mg/kg, 25 minutes)?
The value was 165.0 ± 45.1.

And the “Mean number of behaviors per 5 minute block” value ([2]; Experiment Two, 1 mg/kg, 30 minutes)?
Its value is 234.0 ± 26.3.

And the “Mean number of behaviors per 5 minute block” value ([2]; Experiment Two, 1 mg/kg, 35 minutes)?
Its value is 270.0 ± 10.6.

What about the “Mean number of behaviors per 5 minute block” value ([2]; Experiment Two, 1 mg/kg, 40 minutes) of the same compound?
The value was 281.0 ± 10.4.

What about the “Mean number of behaviors per 5 minute block” value ([2]; Experiment Two, 1 mg/kg, 45 minutes) of the same compound?
Its value is 287.0 ± 5.5.

And the “Mean number of behaviors per 5 minute block” value ([2]; Experiment Two, 1 mg/kg, 50 minutes)?
The value was 266.0 ± 16.6.

And the “Mean number of behaviors per 5 minute block” value ([2]; Experiment Two, 1 mg/kg, 55 minutes)?
Its value is 192.0 ± 38.3.

And the “Mean number of behaviors per 5 minute block” value ([2]; Experiment Two, 1 mg/kg, 60 minutes)?
The value was 170.0 ± 46.6.

And the “Mean number of behaviors per 5 minute block” value ([2]; Experiment Two, 3 mg/kg, 5 minutes)?
The value was 228.0 ± 25.1.

What about the “Mean number of behaviors per 5 minute block” value ([2]; Experiment Two, 3 mg/kg, 10 minutes) of the same compound?
The value was 28.0 ± 12.3.

What about the “Mean number of behaviors per 5 minute block” value ([2]; Experiment Two, 3 mg/kg, 15 minutes) of the same compound?
Its value is 10.0 ± 6.2.

What about the “Mean number of behaviors per 5 minute block” value ([2]; Experiment Two, 3 mg/kg, 20 minutes) of the same compound?
Its value is 96.0 ± 43.8.

What about the “Mean number of behaviors per 5 minute block” value ([2]; Experiment Two, 3 mg/kg, 25 minutes) of the same compound?
The value was 162.0 ± 44.0.

What about the “Mean number of behaviors per 5 minute block” value ([2]; Experiment Two, 3 mg/kg, 30 minutes) of the same compound?
Its value is 200.0 ± 45.0.

And the “Mean number of behaviors per 5 minute block” value ([2]; Experiment Two, 3 mg/kg, 35 minutes)?
The value was 217.0 ± 47.8.

What about the “Mean number of behaviors per 5 minute block” value ([2]; Experiment Two, 3 mg/kg, 40 minutes) of the same compound?
The value was 216.0 ± 47.3.

What about the “Mean number of behaviors per 5 minute block” value ([2]; Experiment Two, 3 mg/kg, 45 minutes) of the same compound?
The value was 220.0 ± 48.1.

And the “Mean number of behaviors per 5 minute block” value ([2]; Experiment Two, 3 mg/kg, 50 minutes)?
Its value is 224.0 ± 42.0.

And the “Mean number of behaviors per 5 minute block” value ([2]; Experiment Two, 3 mg/kg, 55 minutes)?
The value was 247.0 ± 36.2.

What about the “Mean number of behaviors per 5 minute block” value ([2]; Experiment Two, 3 mg/kg, 60 minutes) of the same compound?
Its value is 188.0 ± 36.8.

— patent US20080280862A1, “Methods, compositions, and kits for the treatment of pain” (priority 2007, published 2008)
